{"source": "patent US20180228145A1", "about": "“ABSORBENT BINDER COMPOSITION” (Kimberly-Clark Worldwide, Inc., priority 2015, published 2018)", "system": "E. coli", "assay": "Kirby-Bauer Zone of Inhibition test (AATCC 147-1998), impregnated test wafers on agar plate", "format": "cell-based", "settings": "50 ml FAB, 1.1 g calcium chloride plus antimicrobial agent; impregnated wafer", "protocol": "A variety of absorbent binder compositions were formulated to contain the FAB superabsorbent polymer material, calcium chloride, and an antimicrobial agent. The absorbent binder composition contained 50 ml FAB and 1.1 g (10 mmole) calcium chloride, and the antimicrobial agent as noted in Table 2 below. The absorbent binder compositions were then analyzed according to the Kirby-Bauer Antibiotic test method which is a Zone of Inhibition test method (This test method is also known by the American Association of Textile Chemists and Colorists (AATCC) as test method 147-1998.). In this example, the antimicrobial agents incorporated into an absorbent binder composition were Benzalkonium chloride, hydrogen peroxide, and a combination of the Benzalkonium chloride and hydrogen peroxide. According to the test method, the absorbent binder compositions were then brought into contact with test wafers to impregnate the test wafers with the absorbent binder compositions. The absorbent binder composition-impregnated test wafers were then brought into contact with various pathogenic bacteria on an agar plate and the agar plates were then left to incubate according to the test method. Following incubation, the distance between the wafers and the growth of bacteria was measured.", "data": [{"molecule": "CN[C@H](CC(C)C)C(=O)N[C@H]1C(=O)N[C@@H](CC(N)=O)C(=O)N[C@H]2C(=O)N[C@H]3C(=O)N[C@H](C(=O)N[C@H](C(=O)O)c4cc(O)cc(O)c4-c4cc3ccc4O)[C@H](O)c3ccc(c(Cl)c3)Oc3cc2cc(c3O[C@@H]2O[C@H](CO)[C@@H](O)[C@H](O)[C@H]2O[C@H]2C[C@](C)(N)[C@H](O)[C@H](C)O2)Oc2ccc(cc2Cl)[C@H]1O", "note": "[vancomycin wafer, vancomycin]", "values": [{"measurement": "E. coli Zone of Inhibition", "value": 1.9, "unit": "cm"}]}]}
